{"source": "patent US20210338647A1", "about": "“Combination of Acetylcholinesterase Inhibitor and 5-HT4 Receptor Agonist As Neuroprotective Agent In the Treatment of Neurodegenerative Diseases” (UNIVERSITE DE CAEN NORMANDIE, priority 2018, published 2021)", "key": {"[1]": {"test_system": "5XFAD mice", "assay": "Amyloid plaque number (thioflavin T staining) in brain sections of 5XFAD mice", "assay_type": "in vivo, mouse", "details": "1 mg/kg twice a week for 3 months, versus controls", "experimental": "(§1) 5XFAD mice received chronic treatments with drugs or vehicle according to 2 different protocols. In each experiment, drugs or vehicle solution were administered i.p. twice a week (1 mg/kg). In “Protocol 1”, mice (n=6-7 mice per group) were treated with compounds for two months, from 2 to 4 months of age. In “Protocol 2”, mice (n=7) were treated with compounds for three months, from 1 month to 4 months of age. At the end of each protocol, mice were anesthetized with a mixture of 100 mg/kg ketamine and 10 mg/kg xylazine in saline solution and perfused transcardially with PBS. Brains were quickly isolated on ice, the olfactory bulbs and cerebellum removed and the two hemispheres divided. One hemisphere was frozen on dry ice and stored at −80° C. for biochemical analysis, while the other was post-fixed in 4% PFA for immunohistochemistry (IHC).\nThirty-micrometer-thick sections were cut using a vibratome (Microm HM 650V, Thermo Scientific, Saint Herblain, France) and stored in cryoprotectant medium at −20° C. […]\nImages were acquired with an Axiolmager Z1 microscope (Carl Zeiss S.A.S., Marly le Roi, France). […] GFAP expression was quantified using Image J software and results are expressed as area fractions. […]"}, "[2]": {"test_system": "5XFAD mice", "assay": "Novel object recognition test in chronically treated 5XFAD mice", "assay_type": "in vivo, mouse", "details": "5XFAD females, 1 mg/kg twice a week for 3 months", "experimental": "as §1\n(§2) 28 female 5XFAD mice (C57BL/6J genetic background) were used in this study. Mice received vehicle or compounds (1 mg/kg) i.p., twice a week for three months, from 1 to 4 months of age."}, "[3]": {"test_system": "5XFAD mice", "assay": "Aβ42 concentration in cerebrospinal fluid of chronically treated 5XFAD mice", "assay_type": "in vivo, mouse", "details": "1 mg/kg twice a week for 3 months, versus controls", "experimental": "as §1, §2"}, "[4]": {"test_system": "5XFAD mice", "assay": "Astrogliosis (GFAP staining) in brain sections of 5XFAD mice", "assay_type": "in vivo, mouse", "details": "1 mg/kg twice a week for 3 months, versus controls", "experimental": "as §1\nThirty-micrometer-thick sections were cut using a vibratome (Microm HM 650V, Thermo Scientific, Saint Herblain, France) and stored in cryoprotectant medium at −20° C. For the labeling of amyloid plaques, free-floating tissue sections of frontal cortex, hippocampus and entorhinal cortex (coordinates from the bregma: frontal cortex=1.98 mm, hippocampus=−1.94 mm, entorhinal cortex=−3.08 mm) were extensively washed in PBS and then incubated in blocking solution (PBS; 3% BSA; 0.1% Triton X-100) for 1 h. Sections were stained with Hoechst dye (1:1000, Life Technologies, Saint Aubin, France) for 15 minutes to detect cell nuclei and then with freshly prepared thioflavin T solution (#T3516-5G, Sigma-Aldrich) (final concentration: 0.01 mg/ml in blocking buffer) for 15 minutes. After washing in 70% ethanol for 5 minutes, samples were mounted on poly-lysine slides with coverslips. For GFAP (glial fibrillary acidic protein) staining, free-floating brain sections were blocked as before and incubated with polyclonal rabbit anti-GFAP (1:1000, Z0334, Dako, Les Ullis, France) at 4° C. overnight. After thioflavin T staining and washing with 70% ethanol, the secondary Alexafluor 594 goat anti-rabbit antibody (1:1000, A11012, Life Technologies) was added for 2 h. PBS washes and mounting were performed as described before.\nImages were acquired with an Axiolmager Z1 microscope (Carl Zeiss S.A.S., Marly le Roi, France). Analysis of thioflavin T staining was performed blindly and data are presented as the mean number of particles per mm^2 in two to three tissue sections from the same brain area/animal (Image J software). GFAP expression was quantified using Image J software and results are expressed as area fractions.\nas §2"}, "[5]": {"test_system": "rat primary hippocampal neurons injured with Aβ 1-42", "assay": "Number of synapses (PSD95/SYN overlap) in primary culture of hippocampal neurons injured with Aβ 1-42", "assay_type": "cell-based", "details": "from 5 nM to 1 μM; Aβ 1-42 injured hippocampal neurons; Example 1", "experimental": "Rat hippocampal neurons were cultured as described by Callizot et al. (2013) J. Neurosci. Res. 91706-716. Pregnant female rats of 17 days gestation (Rats Wistar; Janvier Labs France) were killed using a deep anesthesia with CO2 chamber followed by a cervical dislocation. Then, fetuses were removed from the uterus and immediately placed in ice-cold L15 Leibovitz medium with a 2% penicillin (10,000 U/ml) and streptomycin (10 mg/ml) solution (PS) and 1% bovine serum albumin (BSA). Hippocampal neurons were treated for 20 min at 37° C. with a trypsin-EDTA solution at a final concentration of 0.05% trypsin and 0.02% EDTA. The dissociation was stopped by adding Dulbecco's modified Eagle's medium (DMEM) with 4.5 g/l of glucose, containing DNAse I grade 11 (final concentration 0.5 mg/ml) and 10% fetal calf serum (FCS). Cells were mechanically dissociated by three forced passages through the tip of a 10-ml pipette and then centrifuged at 515×g for 10 min at 4° C. The supernatant was discarded, and the pellet was resuspended in a defined culture medium consisting of Neurobasal medium with a 2% solution of B27 supplement, 2 mmol/l of L-glutamine, 2% of PS solution, and 10 ng/ml of brain-derived neurotrophic factor (BDNF). Viable cells were counted in a Neubauer cytometer, using the trypan blue exclusion test. […] The medium was changed every 2 days.\nThe hippocampal neurons were exposed with Aβ solutions (see below) after 17 days of culture. The Aβ1-42 preparation was done following the procedure described by Callizot et al. (2013) J. Neurosci. Res. 91706-716. Briefly, Aβ1-42 peptide was dissolved in the defined culture medium mentioned above, at an initial concentration of 40 μM. This solution was gently agitated for 3 days at 37° C. in the dark and immediately used after being properly diluted in culture medium to the concentrations used (20 μM (plate 1) or 2.5 μM (plate 2) corresponding to 2 μM or 0.25 μM of oligomers (AβO) respectively).\nDonecopride fumarate was solved in culture medium and preincubated 1 h before Aβ application. Aβ1-42 preparation was added to a final concentration of 20 or 2.5 μM (=2 μM or 0.25 μM of AβO, evaluated by automatic Western Blot) diluted in control medium in presence of Donecopride.\nDonecopride fumarate (Donecopride) was tested on one culture in a 96 well plate (6 wells per conditions). The compound was preincubated one hour before […] application. The following conditions were assessed:\nAfter permeabilization with 0.1% of saponin, cells were incubated for 2 h with:\na) mouse monoclonal antibody anti post synaptic density 95 kDa (PSD95) at a dilution of 1/100 in PBS containing 1% fetal calf serum and 0.1% of saponin.\nb) Rabbit polyclonal antibody anti-synaptophysin (SYN) at the dilution of 1/100 in PBS containing 1% fetal calf serum and 0.1% of saponin.\nFor each condition, 40 pictures per well were taken using ImageXpress (Molecular Devices) with 40× magnification. All images were taken with the same acquisition parameters.\nSynapses evaluation was performed automatically by using Custom module editor (Molecular Devices).\nTotal number of synapses (overlapping between PSD95/SYN).\nTo assess the formation of synapses, the distribution of PSD-95, a post-synaptic marker, and synaptophysin, a pre-synaptic marker, was studied. A structure positive for both PSD-95 and synaptophysin staining was considered as a synapse.\nRat hippocampal neurons were cultured as described by Callizot et al. (2013) J. Neurosci. Res. 91:706-716."}}, "data": [{"smiles": "COc1cc(N)c(Cl)cc1C(=O)CCC1CCN(CC2CCCCC2)CC1", "note": "[Donecopride]", "values": [{"measurement": "Amyloid plaque number in hippocampus", "setting": "[1]", "value": "not significantly different compared to controls"}, {"measurement": "Total exploration time during the training session (NOR test)", "setting": "[2]", "value": "did not differ significantly"}, {"measurement": "Recognition memory: time exploring novel versus familiar object (NOR test)", "setting": "[2]; 24 h interval between training and test", "value": "able to prevent memory alteration"}, {"measurement": "Aβ42 concentration in cerebrospinal fluid (CSF)", "setting": "[3]", "value": "not significantly different compared to controls"}, {"measurement": "GFAP staining in frontal cortex", "setting": "[4]", "value": "not significantly different compared to controls"}, {"measurement": "GFAP staining in hippocampus", "setting": "[4]", "value": "not significantly different compared to controls"}, {"measurement": "Preservation of the number of synapses", "setting": "[5]", "value": "preserve the number of synapses, on a dose dependent manner"}]}]}
